Results taken from US12692221B2 (priority 2024, dated 2026).

Assays:
alpha1D (h) = target: T1, alpha1D (h) (Homo sapiens, UniProt P25100); assay: Radioligand binding alpha1D (h) (antagonist radioligand), [^3H]prazosin, CHO cells
T1 construct: expressed in transfected cells; host or cells: CHO cells
T1 sequence (P25100 1-572): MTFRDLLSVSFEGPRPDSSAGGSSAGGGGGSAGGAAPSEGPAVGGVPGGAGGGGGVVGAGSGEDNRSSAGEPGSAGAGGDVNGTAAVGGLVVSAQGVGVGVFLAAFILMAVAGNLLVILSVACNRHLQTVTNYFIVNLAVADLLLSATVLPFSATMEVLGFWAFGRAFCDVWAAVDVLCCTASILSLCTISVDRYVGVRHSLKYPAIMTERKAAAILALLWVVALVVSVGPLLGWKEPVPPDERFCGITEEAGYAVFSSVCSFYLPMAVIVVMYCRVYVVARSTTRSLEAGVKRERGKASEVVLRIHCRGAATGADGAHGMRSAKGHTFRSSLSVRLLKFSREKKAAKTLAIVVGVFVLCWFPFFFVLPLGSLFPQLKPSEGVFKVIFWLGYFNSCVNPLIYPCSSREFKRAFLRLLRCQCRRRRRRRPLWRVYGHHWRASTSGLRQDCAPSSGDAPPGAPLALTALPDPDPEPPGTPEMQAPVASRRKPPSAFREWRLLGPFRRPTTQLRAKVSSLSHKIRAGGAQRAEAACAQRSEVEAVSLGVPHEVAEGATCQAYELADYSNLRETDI
Procedure: (§1) Methods—Binding Assays: In vitro binding assays were performed using human recombinant receptors expressed in mammalian cell lines. Receptors were expressed in either HEK-293 or CHO cells depending on the target, and assay conditions (radioligand, concentration, nonspecific competitor, temperature, and incubation time) were optimized for each receptor. All assays were conducted in triplicate, and specific binding was quantified by scintillation counting as the detection method for each listed assay.
(§2) Specific binding was expressed as a percentage of control-specific binding, and percent inhibition was calculated using the formula in Ex. 8 above. Half-maximal inhibitory concentrations (IC50) were determined by non-linear regression analysis of the inhibition curves using the Hill equation (see Ex. 8). Inhibition constants (Ki) were calculated using the Cheng-Prusoff equation (see Ex. 8). KD values used in these calculations had been previously established for each receptor under the assay conditions (see Table 6). Data analysis was performed using software developed at Cerep and validated against SigmaPlot 4.0 for Windows.

beta1 (h) = target: T2, beta1 (h) (Homo sapiens, UniProt P08588); assay: Radioligand binding beta1 (h) (agonist radioligand), [^3H](−)CGP 12177, HEK-293 cells
T2 construct: expressed in transfected cells; host or cells: HEK-293 cells
Procedure: as §1, §2

CB1 (h) = target: T3, CB1 (h) (Homo sapiens, UniProt P21554); assay: Radioligand binding CB1 (h) (agonist radioligand), [^3H]CP 55940, Chem-RBL cells
T3 construct: expressed in transfected cells; host or cells: Chem-RBL cells

D2S (h) = target: T4, D2S (h) (Homo sapiens, UniProt P14416); assay: Radioligand binding D2S (h) (agonist radioligand), [^3H]7-OH-DPAT, HEK-293 cells
T4 construct: expressed in transfected cells; host or cells: HEK-293 cells
Procedure: as §1, §2

H1 (h) = target: T5, H1 (h) (Homo sapiens, UniProt P35367); assay: Radioligand binding H1 (h) (antagonist radioligand), [^3H]pyrilamine, HEK-293 cells
T5 construct: expressed in transfected cells; host or cells: HEK-293 cells
Procedure: as §1, §2

M1 (h) = target: T6, M1 (h) (Homo sapiens, UniProt P11229); assay: Radioligand binding M1 (h) (antagonist radioligand), [^3H]pirenzepine, CHO cells
T6 construct: expressed in transfected cells; host or cells: CHO cells
T6 sequence (P11229 1-460): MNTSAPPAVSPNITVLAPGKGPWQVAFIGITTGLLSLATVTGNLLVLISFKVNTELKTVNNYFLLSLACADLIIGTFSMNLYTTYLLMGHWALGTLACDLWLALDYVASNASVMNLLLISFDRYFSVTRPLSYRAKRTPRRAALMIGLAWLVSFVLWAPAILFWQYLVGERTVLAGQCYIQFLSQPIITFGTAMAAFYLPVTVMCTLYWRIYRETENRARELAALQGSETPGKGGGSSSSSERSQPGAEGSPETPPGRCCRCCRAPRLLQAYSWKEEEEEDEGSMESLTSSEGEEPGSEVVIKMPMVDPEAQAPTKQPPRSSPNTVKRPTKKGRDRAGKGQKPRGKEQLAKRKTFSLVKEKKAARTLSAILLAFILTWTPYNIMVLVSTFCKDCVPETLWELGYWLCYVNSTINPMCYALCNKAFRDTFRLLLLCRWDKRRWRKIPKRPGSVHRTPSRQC
Procedure: as §1, §2

kappa (KOP) (h) = target: T7, kappa (KOP) (h) (Homo sapiens, UniProt P41145); assay: Radioligand binding kappa (KOP) (h) (agonist radioligand), [^3H]U69593, RBL cells; details: kappa (h) (KOP) (agonist radiolig.)
T7 construct: expressed in transfected cells; host or cells: RBL cells

GR (h) = target: T8, GR (h) (Homo sapiens, UniProt P04150); assay: Radioligand binding GR (h) (agonist radioligand), [^3H]dexamethasone, IM-9 cells
T8 construct: human endog; endogenous in cells; host or cells: IM-9 cells
T8 sequence (P04150 1-777): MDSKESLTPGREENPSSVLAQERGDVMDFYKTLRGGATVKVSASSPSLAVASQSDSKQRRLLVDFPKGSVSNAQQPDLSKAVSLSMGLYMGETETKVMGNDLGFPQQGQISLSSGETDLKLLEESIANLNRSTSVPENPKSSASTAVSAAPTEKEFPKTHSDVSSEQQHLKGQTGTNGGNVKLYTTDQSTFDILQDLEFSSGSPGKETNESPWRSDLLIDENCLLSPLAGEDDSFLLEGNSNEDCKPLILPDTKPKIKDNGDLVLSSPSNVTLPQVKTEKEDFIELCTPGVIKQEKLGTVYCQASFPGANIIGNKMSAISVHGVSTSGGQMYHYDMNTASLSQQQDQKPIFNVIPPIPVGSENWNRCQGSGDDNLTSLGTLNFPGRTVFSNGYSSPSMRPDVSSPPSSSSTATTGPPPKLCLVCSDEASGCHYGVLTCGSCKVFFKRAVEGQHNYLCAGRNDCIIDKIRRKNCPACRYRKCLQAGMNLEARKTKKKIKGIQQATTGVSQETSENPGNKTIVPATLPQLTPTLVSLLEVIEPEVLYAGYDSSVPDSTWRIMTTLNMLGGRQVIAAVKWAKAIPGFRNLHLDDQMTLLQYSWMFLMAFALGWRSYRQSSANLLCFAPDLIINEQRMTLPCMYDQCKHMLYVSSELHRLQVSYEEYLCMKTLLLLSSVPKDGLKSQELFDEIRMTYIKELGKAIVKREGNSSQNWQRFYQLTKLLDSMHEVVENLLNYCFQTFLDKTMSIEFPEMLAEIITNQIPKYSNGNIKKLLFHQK

male C57BL/6J mice = assay: Motor activity / distance traveled measured in parallel with HTR; format: in vivo, mouse; details: i.p.; for motor activity, in words: magnetometer activity

T4 sequence (P14416 1-414 isoform P14416-2): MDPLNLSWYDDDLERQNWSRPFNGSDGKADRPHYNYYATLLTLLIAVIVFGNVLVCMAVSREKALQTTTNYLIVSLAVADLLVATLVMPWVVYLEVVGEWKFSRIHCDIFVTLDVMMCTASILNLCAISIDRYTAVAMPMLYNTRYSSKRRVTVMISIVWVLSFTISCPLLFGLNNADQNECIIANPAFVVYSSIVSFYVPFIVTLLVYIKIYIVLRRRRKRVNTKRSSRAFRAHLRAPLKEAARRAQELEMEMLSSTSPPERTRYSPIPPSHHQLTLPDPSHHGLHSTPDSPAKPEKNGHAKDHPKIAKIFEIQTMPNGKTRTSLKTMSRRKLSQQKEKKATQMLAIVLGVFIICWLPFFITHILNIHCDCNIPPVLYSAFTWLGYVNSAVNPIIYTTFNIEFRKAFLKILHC
T5 sequence (P35367 whole entry): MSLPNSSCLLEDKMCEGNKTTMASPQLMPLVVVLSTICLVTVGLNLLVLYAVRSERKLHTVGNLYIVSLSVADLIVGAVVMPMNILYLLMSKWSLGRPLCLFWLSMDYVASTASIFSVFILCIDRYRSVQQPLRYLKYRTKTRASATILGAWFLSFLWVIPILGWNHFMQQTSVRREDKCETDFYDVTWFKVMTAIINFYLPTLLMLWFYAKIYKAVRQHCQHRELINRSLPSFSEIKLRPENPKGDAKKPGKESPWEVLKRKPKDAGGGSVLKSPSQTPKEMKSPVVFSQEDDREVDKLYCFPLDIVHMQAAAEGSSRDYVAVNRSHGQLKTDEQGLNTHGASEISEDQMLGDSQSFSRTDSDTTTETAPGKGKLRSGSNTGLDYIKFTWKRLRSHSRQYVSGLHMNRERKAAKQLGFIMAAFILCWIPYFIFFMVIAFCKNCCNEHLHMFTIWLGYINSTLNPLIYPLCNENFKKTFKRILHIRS
T3 sequence (P21554 whole entry): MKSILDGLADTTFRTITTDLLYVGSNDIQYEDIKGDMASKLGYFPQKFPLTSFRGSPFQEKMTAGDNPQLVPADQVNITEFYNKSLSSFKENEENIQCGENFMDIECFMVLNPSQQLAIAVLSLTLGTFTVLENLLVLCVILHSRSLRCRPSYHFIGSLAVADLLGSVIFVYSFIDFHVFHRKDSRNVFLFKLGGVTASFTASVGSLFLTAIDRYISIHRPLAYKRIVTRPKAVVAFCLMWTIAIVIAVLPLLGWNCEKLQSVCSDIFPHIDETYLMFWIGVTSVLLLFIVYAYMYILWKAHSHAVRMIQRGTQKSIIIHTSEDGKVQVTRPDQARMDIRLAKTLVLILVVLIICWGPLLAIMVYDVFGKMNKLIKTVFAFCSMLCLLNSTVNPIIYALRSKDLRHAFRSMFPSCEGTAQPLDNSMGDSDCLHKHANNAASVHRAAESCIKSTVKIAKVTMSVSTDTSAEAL
T7 sequence (P41145 whole entry): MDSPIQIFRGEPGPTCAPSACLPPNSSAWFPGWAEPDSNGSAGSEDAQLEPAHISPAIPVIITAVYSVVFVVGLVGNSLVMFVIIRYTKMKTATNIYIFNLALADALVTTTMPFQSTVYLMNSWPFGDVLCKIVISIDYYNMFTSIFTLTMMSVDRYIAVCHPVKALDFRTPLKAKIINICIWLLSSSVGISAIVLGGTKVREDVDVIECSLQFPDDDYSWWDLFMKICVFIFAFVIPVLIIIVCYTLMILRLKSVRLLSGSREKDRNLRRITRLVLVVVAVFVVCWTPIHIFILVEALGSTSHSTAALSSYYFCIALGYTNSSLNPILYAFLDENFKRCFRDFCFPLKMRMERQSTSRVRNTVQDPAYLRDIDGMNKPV
T2 sequence (P08588 whole entry): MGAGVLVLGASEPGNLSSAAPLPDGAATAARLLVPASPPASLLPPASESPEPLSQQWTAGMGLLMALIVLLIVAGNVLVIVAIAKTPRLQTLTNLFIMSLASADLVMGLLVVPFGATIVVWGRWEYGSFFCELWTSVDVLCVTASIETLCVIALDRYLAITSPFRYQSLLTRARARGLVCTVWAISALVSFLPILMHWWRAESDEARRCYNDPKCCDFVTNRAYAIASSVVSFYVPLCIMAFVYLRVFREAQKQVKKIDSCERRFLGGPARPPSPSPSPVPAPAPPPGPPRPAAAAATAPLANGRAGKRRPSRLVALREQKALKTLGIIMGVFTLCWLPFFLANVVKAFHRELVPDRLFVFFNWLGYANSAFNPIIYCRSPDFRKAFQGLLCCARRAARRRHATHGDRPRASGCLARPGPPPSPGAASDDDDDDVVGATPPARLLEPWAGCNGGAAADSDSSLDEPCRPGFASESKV

Row | Compound | Mean Percent Inhibition of Control Specific Binding (alpha1D (h)) | Mean Percent Inhibition of Control Specific Binding (beta1 (h)) | Mean Percent Inhibition of Control Specific Binding (CB1 (h)) | Mean Percent Inhibition of Control Specific Binding (D2S (h)) | Mean Percent Inhibition of Control Specific Binding (H1 (h)) | Mean Percent Inhibition of Control Specific Binding (M1 (h)) | Mean Percent Inhibition of Control Specific Binding (kappa (KOP) (h)) | Mean Percent Inhibition of Control Specific Binding (GR (h)) | motor activity, in words (male C57BL/6J mice) | Distance traveled (locomotor activity), in words (male C57BL/6J mice; 0.03-30 mpk, over 30 minutes) | motor activity ID50 (male C57BL/6J mice)
1 | COCc1cc(CCN)c(O)cc1CC(C)C [2CiBu-2OH-5MM, 2-(2-aminoethyl)-5-isobutyl-4-(methoxymethyl)phenol] | 11.8% | 84.5% | −1.9% | 46.6% | 5.7% | 4.9% | 28.2% | −3.1% |  |  | 
2 | COCCc1cc(CCN)c(OC)cc1Br [Compound 2CB-5ME, reference compound] | 10.0% | 26.2% | 4.0% | 83.0% | 7.3% | 55.4% | 11.2% | −0.5% | motor suppression reaching statistical significance at 30 mpk |  | 
3 | COCc1cc(CCN)c(OC)cc1Br [Compound 2CB-5MM, 2-(4-bromo-2-methoxy-5-(methoxymethyl)phenyl)ethan-1-amine] | 9.5% | 19% | −10.4% | 89.4% | 7.3% | 43.4% | 11.4% | −7.2% |  | remained consistent across doses | 
4 | COCc1cc(CCN)c(OC)cc1CC(C)C [Compound 2CiBu-5MM, 2-[4-isobutyl-2-methoxy-5-(methoxymethyl)phenyl]ethanamine] | 0.5% | 36.0% | −5.6% | 12.9% | 0.6% | 52.6% | 29.8% | −3.9% | statistically significant suppression of motor activity at the two highest doses tested of 10 and 30 mpk |  | > 3 mpk
